Reference: patent US9084817B2, “Oral preparation comprising specific organic acid, and method for improvement in elution property and chemical stability of oral preparation” (TORAY INDUSTRIES, INC., priority 2007, dated 2015)

Assay: Water required to dissolve 1 g of organic acid at 20° C. (Japanese Pharmacopoeia solubility)
Type: physicochemical
Method: The organic acid 1 g of which requires not less than 30 mL of water to dissolve in at 20° C. refers to such an organic acid that 30 mL or more of water is required to dissolve 1 g of the organic acid within 30 minutes at 20±5° C. by vigorous shaking for 30 seconds each time at 5-minute intervals, in accordance with the description about solubility in the Japanese Pharmacopoeia, 15th Edition, General Notices, page A-13.

In the case of O=C(O)/C=C/C(=O)O [Fumaric acid], the “Water required to dissolve 1 g of organic acid in at 20° C.” value is reported as ≥ 100 mL.
